Results from US10266537B2, “3-acetylenyl-pyrazole-pyrimidine derivative, and preparation method therefor and uses thereof” (Si Chuan University, priority 2015, dated 2019).
Read-outs that look alike come from different tables or passages of the source.

What was measured:
Blk = Blk (Homo sapiens (Human), UniProt P51451); experiment: Kinase inhibition assay (KinaseProfiler, 33P-ATP); assay type: biochemical; settings: Blk(h); 10 μM; read-out: The percentage of the remaining active protein
EphB2 = EphB2 (Homo sapiens (Human), UniProt P29323); experiment: Kinase inhibition assay (KinaseProfiler, 33P-ATP); assay type: biochemical
EphB4 = EphB4 (Homo sapiens (Human), UniProt P54760); experiment: Kinase inhibition assay (KinaseProfiler, 33P-ATP); assay type: biochemical; settings: EphB4(h); 10 μM; read-out: The percentage of the remaining active protein
DDR1 = DDR1 (Homo sapiens (Human), UniProt Q08345); experiment: Kinase inhibition assay (KinaseProfiler, 33P-ATP); assay type: biochemical
TAK1 = TAK1 (Homo sapiens (Human), UniProt O43318); experiment: Kinase inhibition assay (KinaseProfiler, 33P-ATP); assay type: biochemical; settings: TAK1(h); 10 μM; read-out: The percentage of the remaining active protein
Btk = Btk (Homo sapiens (Human), UniProt Q06187); experiment: Kinase inhibition assay (KinaseProfiler, 33P-ATP); assay type: biochemical; settings: BTK(h); 10 μM; read-out: The percentage of the remaining active protein
IKKα = IKKα (Homo sapiens (Human), UniProt O15111); experiment: Kinase inhibition assay (KinaseProfiler, 33P-ATP); assay type: biochemical; settings: IKKα(h); 10 μM; read-out: The percentage of the remaining active protein
Lyn = Lyn (Homo sapiens (Human), UniProt P07948); experiment: Kinase inhibition assay (KinaseProfiler, 33P-ATP); assay type: biochemical
Tie2 = Tie2 (Homo sapiens (Human), UniProt Q02763); experiment: Kinase inhibition assay (KinaseProfiler, 33P-ATP); assay type: biochemical; settings: Tie2 (h); 10 μM; read-out: The percentage of the remaining active protein
ARK5(h) = ARK5(h) (Homo sapiens (Human), UniProt O60285); experiment: Kinase inhibition assay (KinaseProfiler, 33P-ATP); assay type: biochemical; settings: 10 μM, read-out: The percentage of the remaining active protein
CDK7 = CDK7 (Homo sapiens (Human), UniProt P50613); experiment: Kinase inhibition assay (KinaseProfiler, 33P-ATP); assay type: biochemical; settings: CDK7/cyclinH/MAT1(h); 10 μM; read-out: The percentage of the remaining active protein
CHK1(h) = CHK1(h) (Homo sapiens (Human), UniProt O14757); experiment: Kinase inhibition assay (KinaseProfiler, 33P-ATP); assay type: biochemical; settings: 10 μM, read-out: The percentage of the remaining active protein
Fms(h) = Fms(h) (Homo sapiens (Human), UniProt P07333); experiment: Kinase inhibition assay (KinaseProfiler, 33P-ATP); assay type: biochemical; settings: 10 μM, read-out: The percentage of the remaining active protein
Itk(h) = Itk(h) (Homo sapiens (Human), UniProt Q08881); experiment: Kinase inhibition assay (KinaseProfiler, 33P-ATP); assay type: biochemical; settings: 10 μM, read-out: The percentage of the remaining active protein
JNK1α1(h) = JNK1α1(h) (Homo sapiens (Human), UniProt P45983); experiment: Kinase inhibition assay (KinaseProfiler, 33P-ATP); assay type: biochemical; settings: 10 μM, read-out: The percentage of the remaining active protein
PAK1(h) = PAK1(h) (Homo sapiens (Human), UniProt Q13153); experiment: Kinase inhibition assay (KinaseProfiler, 33P-ATP); assay type: biochemical; settings: 10 μM, read-out: The percentage of the remaining active protein
PKBα(h) = PKBα(h) (Homo sapiens (Human), UniProt P31749); experiment: Kinase inhibition assay (KinaseProfiler, 33P-ATP); assay type: biochemical; settings: 10 μM, read-out: The percentage of the remaining active protein
HepG2 = experiment: Cell proliferation inhibition assay (MTT); assay type: cell-based; settings: Homo sapiens, 72 hours, read-out: Proliferation inhibitory activity IC50
Description: (§1) The cells were seeded in 96-well plates with 200 μL of cell suspension per well and incubated overnight in a cell culture medium with a cell concentration of 1 2×10^4 cells/mL. The next day, the supernatant was discarded (the suspension cell was centrifuged before it) and the cells were treated with gradient concentrations of the test compound, respectively. […] After 72 hours, add 20 μL of MTT reagent at a concentration of 5 mg/mL per well. After incubation for 2-4 h, the supernatant was discarded and 150 μL of DMSO was added to each well. […] Relative cell proliferation inhibition rate=([MUT]-[MUT])×100%/[MUT]. The experiment was repeated at least 3 times. Experimental data were expressed as mean, data statistics using t test, P<0.05 for the difference was statistically significant.

plc/prf/5 = experiment: Cell proliferation inhibition assay (MTT); assay type: cell-based; settings: Homo sapiens, 72 hours, read-out: Proliferation inhibitory activity IC50
Description: as §1

MDA-MB-231 = experiment: Cell proliferation inhibition assay (MTT); assay type: cell-based, human; settings: Homo sapiens, MDA-MB-231, MTT, 72 hours
MDA-MB-435 = experiment: Cell proliferation inhibition assay (MTT); assay type: cell-based, human; settings: Homo sapiens; MDA-MB-435; MTT, 72 hours; read-out: Proliferative inhibitory activity MDA-MB-435 (IC50 class)
BT474 = experiment: Cell proliferation inhibition assay (MTT); assay type: cell-based; settings: Homo sapiens, BT-474; BT474; MTT, 72 hours; read-out: Proliferation inhibitory activity IC50
Description: as §1

HT29 = experiment: Cell proliferation inhibition assay (MTT); assay type: cell-based; settings: Homo sapiens, HT-29; HT29; MTT, 72 hours; read-out: Proliferation inhibitory activity IC50
Description: as §1

A375 = experiment: Cell proliferation inhibition assay (MTT); assay type: cell-based; settings: Homo sapiens, A-375; A375; MTT, 72 hours; read-out: Proliferation inhibitory activity IC50
Description: as §1

[1] = system: breast cancer cell line MDA-MB-231; assay type: in vivo; settings: MDA-MB-231 subcutaneous tumor, nude mice
Description: When the tumors grew to volumes of 200 mm^3, all the mice were randomized into groups (6 mice for each group) and dosed with indicated compounds.
Observation indexes: mouse body weight and the tumor size were measured once every three days, the tumor volume is calculated (length×width^2×0.5).

c-Src(1-530) = c-Src(1-530) (Homo sapiens (Human), UniProt P12931); experiment: Kinase inhibition assay (KinaseProfiler, 33P-ATP); settings: read-out: The percentage of the remaining active protein
B-Raf = B-Raf (Homo sapiens (Human), UniProt P15056); experiment: Kinase inhibition assay (KinaseProfiler, 33P-ATP); settings: read-out: The percentage of the remaining active protein
EphA2 = EphA2 (Homo sapiens (Human), UniProt P29317); experiment: Kinase inhibition assay (KinaseProfiler, 33P-ATP); settings: read-out: The percentage of the remaining active protein
MEK1(h) = MEK1(h) (Homo sapiens (Human), UniProt Q02750); experiment: Kinase inhibition assay (KinaseProfiler, 33P-ATP); settings: read-out: The percentage of the remaining active protein

Chain of Lyn (P07948 whole entry): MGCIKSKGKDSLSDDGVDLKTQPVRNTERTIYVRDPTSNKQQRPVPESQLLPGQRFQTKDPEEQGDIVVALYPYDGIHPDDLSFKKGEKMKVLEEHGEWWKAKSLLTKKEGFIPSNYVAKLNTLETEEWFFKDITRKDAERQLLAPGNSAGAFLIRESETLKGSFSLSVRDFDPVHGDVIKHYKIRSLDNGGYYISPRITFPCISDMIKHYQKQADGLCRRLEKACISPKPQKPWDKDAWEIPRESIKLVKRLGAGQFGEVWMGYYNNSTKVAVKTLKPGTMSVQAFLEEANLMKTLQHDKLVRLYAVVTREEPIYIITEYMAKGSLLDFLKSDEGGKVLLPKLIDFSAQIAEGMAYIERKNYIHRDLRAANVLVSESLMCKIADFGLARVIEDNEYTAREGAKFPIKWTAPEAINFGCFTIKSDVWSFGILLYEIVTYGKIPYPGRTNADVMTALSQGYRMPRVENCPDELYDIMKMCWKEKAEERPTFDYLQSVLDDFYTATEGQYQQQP
Chain of DDR1 (Q08345 19-913): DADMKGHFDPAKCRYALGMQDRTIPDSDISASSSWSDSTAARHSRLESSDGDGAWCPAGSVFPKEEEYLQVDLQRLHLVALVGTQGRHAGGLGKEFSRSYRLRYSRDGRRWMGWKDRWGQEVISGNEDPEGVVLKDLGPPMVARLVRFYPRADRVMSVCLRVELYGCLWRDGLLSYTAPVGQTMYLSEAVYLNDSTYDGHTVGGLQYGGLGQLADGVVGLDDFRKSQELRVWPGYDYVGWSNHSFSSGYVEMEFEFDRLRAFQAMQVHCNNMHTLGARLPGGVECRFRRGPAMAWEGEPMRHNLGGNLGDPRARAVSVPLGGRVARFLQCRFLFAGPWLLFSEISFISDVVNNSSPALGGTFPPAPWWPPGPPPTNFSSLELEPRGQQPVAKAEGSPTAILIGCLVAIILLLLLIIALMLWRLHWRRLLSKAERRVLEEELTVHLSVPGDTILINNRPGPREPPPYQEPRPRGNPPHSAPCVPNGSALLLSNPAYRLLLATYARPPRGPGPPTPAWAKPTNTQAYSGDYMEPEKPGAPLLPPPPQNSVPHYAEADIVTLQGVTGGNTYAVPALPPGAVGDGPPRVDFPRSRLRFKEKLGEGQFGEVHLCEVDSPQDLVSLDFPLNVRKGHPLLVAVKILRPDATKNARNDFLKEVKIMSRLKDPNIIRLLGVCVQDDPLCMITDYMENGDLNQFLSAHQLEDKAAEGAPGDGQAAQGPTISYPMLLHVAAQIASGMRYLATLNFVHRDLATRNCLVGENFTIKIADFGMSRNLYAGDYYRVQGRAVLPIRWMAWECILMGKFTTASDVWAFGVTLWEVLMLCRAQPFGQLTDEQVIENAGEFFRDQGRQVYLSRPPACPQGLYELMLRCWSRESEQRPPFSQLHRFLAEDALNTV
Chain of EphB2 (P29323 19-1055): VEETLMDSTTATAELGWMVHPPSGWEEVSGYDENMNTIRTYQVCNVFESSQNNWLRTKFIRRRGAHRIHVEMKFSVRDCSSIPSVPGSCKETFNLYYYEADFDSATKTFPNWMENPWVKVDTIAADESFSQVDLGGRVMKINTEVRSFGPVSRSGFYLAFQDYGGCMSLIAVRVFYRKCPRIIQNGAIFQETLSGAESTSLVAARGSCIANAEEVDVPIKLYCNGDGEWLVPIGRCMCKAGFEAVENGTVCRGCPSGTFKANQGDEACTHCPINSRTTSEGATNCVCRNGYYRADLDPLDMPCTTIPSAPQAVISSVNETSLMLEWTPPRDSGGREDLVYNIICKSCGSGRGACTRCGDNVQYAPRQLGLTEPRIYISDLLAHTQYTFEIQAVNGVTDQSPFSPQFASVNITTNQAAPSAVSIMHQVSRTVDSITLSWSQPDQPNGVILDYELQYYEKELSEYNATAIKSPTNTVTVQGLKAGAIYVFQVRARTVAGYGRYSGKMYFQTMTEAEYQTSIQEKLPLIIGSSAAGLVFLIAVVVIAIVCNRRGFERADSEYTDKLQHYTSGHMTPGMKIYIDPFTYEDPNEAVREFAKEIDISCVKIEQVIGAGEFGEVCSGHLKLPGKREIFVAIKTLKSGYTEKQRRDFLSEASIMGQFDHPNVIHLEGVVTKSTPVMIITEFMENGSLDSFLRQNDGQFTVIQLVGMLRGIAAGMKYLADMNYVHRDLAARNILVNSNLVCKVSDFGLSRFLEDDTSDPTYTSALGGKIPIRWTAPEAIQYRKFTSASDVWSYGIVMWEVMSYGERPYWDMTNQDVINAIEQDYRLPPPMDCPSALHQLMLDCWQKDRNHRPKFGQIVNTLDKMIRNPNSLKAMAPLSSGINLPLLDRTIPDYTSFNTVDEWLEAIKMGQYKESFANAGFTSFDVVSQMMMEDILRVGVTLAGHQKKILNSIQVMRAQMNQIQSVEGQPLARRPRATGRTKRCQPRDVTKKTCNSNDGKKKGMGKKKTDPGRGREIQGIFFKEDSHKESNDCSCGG
Chain of ARK5(h) (O60285 whole entry): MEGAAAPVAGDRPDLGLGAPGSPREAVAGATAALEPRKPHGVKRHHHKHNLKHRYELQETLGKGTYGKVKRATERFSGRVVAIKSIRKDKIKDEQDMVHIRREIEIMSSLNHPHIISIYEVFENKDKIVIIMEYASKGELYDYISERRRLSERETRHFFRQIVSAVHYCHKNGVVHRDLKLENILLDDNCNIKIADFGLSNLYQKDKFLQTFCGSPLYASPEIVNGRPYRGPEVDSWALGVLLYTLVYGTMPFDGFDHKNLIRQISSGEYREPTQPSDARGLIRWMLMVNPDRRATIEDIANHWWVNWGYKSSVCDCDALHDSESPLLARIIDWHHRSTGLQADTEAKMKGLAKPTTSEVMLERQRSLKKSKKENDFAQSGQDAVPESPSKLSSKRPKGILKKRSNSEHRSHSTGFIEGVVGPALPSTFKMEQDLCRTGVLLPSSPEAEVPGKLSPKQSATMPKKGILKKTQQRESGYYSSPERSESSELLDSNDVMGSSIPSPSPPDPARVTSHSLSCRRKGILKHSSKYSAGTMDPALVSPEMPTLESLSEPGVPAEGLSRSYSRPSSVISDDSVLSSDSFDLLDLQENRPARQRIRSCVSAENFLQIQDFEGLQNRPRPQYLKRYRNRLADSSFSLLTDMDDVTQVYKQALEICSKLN
Chain of Tie2 (Q02763 23-1124): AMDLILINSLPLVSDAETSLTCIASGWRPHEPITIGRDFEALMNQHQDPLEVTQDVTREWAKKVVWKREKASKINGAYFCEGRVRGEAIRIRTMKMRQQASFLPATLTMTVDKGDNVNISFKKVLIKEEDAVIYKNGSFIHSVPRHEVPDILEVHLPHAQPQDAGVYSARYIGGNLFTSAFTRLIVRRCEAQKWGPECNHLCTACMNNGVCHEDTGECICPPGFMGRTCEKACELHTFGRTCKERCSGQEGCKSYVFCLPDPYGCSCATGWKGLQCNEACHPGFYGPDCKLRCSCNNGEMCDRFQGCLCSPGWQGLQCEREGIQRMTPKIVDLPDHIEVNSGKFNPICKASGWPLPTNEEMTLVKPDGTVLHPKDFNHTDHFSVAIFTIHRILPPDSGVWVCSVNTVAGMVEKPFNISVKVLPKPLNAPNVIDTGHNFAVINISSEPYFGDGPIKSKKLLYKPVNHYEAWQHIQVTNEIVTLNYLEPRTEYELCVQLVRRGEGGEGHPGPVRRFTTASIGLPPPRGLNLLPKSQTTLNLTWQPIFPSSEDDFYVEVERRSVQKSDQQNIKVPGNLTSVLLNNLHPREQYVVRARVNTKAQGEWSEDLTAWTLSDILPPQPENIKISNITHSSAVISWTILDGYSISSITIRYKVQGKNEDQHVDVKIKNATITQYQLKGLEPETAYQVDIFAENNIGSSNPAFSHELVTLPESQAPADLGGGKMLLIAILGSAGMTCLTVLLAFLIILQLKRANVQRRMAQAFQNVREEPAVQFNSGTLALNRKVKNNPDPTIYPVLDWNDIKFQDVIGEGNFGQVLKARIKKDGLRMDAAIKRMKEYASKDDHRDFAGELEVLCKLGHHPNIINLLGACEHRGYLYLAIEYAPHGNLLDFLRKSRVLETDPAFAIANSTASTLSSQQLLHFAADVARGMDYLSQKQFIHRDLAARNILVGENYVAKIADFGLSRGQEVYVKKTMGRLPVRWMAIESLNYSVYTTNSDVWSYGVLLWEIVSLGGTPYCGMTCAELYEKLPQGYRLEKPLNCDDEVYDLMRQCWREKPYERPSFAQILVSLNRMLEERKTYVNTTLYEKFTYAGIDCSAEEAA
Chain of Itk(h) (Q08881 whole entry): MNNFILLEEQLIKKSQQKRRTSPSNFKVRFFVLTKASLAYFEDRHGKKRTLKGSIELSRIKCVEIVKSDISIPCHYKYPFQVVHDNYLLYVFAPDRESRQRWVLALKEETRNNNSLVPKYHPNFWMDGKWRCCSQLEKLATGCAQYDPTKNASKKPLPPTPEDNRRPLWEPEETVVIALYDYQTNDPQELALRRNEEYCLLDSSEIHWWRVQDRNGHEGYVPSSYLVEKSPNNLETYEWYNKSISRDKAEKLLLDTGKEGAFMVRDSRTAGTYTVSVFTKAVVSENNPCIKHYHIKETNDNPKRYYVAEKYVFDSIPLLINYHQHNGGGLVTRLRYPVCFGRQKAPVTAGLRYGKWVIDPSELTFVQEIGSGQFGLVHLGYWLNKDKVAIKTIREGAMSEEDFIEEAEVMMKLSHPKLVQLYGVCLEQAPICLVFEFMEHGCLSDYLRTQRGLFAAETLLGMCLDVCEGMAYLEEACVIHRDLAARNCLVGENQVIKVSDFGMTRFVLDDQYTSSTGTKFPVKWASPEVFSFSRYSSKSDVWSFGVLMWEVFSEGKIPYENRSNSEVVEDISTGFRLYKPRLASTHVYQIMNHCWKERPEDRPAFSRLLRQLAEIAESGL

With `Cc1ccc(NC(=O)c2ccc(C)c(C(F)(F)F)c2)cc1C#Cc1nn([C@H]2CC[C@H](O)CC2)c2ncnc(N)c12` [Compound 93] as the molecule, how does the remaining activity at 10 µM (Blk) read?
The remaining activity at 10 µM was 0%.

What about the remaining activity at 10 µM (EphB2; EphB2(h), 10 μM, read-out: The percentage of the remaining active protein) of the same molecule?
Its remaining activity at 10 µM is -1%.

What about the IC50 (EphB2; EphB2, ATP at Km) of the same molecule?
The IC50 was 0.033 µM.

What about the remaining activity at 10 µM (EphB4) of the same molecule?
Its remaining activity at 10 µM is 1%.

And the remaining activity at 10 µM (DDR1; DDR1(h), 10 μM, read-out: The percentage of the remaining active protein)?
Its remaining activity at 10 µM is -2%.

What about the IC50 (DDR1; DDR1, ATP at Km) of the same molecule?
The IC50 was 0.015 µM.

And the remaining activity at 10 µM (TAK1)?
The remaining activity at 10 µM was 1%.

And the remaining activity at 10 µM (Btk)?
The remaining activity at 10 µM was 10%.

And the remaining activity at 10 µM (IKKα)?
Its remaining activity at 10 µM is 7%.

What about the remaining activity at 10 µM (Lyn; Lyn(h), 10 μM, read-out: The percentage of the remaining active protein) of the same molecule?
Its remaining activity at 10 µM is 0%.

What about the IC50 (Lyn; Lyn, ATP at Km) of the same molecule?
Its IC50 is 0.004 µM.

And the remaining activity at 10 µM (Tie2)?
Its remaining activity at 10 µM is 1%.

And the remaining activity at 10 µM (ARK5(h))?
The remaining activity at 10 µM was 108%.

And the remaining activity at 10 µM (CDK7)?
Its remaining activity at 10 µM is 103%.

What about the remaining activity at 10 µM (CHK1(h)) of the same molecule?
The remaining activity at 10 µM was 114%.

And the remaining activity at 10 µM (Fms(h))?
Its remaining activity at 10 µM is 4%.

What about the remaining activity at 10 µM (Itk(h)) of the same molecule?
The remaining activity at 10 µM was 102%.

What about the remaining activity at 10 µM (JNK1α1(h)) of the same molecule?
The remaining activity at 10 µM was 35%.

What about the remaining activity at 10 µM (PAK1(h)) of the same molecule?
The remaining activity at 10 µM was 87%.

And the remaining activity at 10 µM (PKBα(h))?
Its remaining activity at 10 µM is 101%.

And the IC50 (HepG2)?
The IC50 was roughly 10 µM.

What about the IC50 (plc/prf/5) of the same molecule?
The IC50 was roughly 10 µM.

And the IC50 (MDA-MB-231; read-out: Proliferation inhibitory activity IC50)?
Its IC50 is 0.03 µM.

And the IC50 (MDA-MB-231; read-out: Proliferative inhibitory activity MDA-MB-231 (IC50 class))?
Its IC50 is less than 0.1 µM.

And the IC50 (MDA-MB-435)?
The IC50 was less than 0.1 µM.

And the IC50 (BT474)?
Its IC50 is greater than 10 µM.

And the IC50 (HT29)?
The IC50 was 0.23 µM.

What about the IC50 (A375) of the same molecule?
Its IC50 is roughly 0.03 µM.

And the tumor growth inhibition ([1]; 20 mg/kg per day, oral)?
The tumor growth inhibition was “significantly inhibit tumor growth”.

What about the “inhibitory effect compared to positive control” value ([1]; vs paclitaxel 10 mg/kg per week tail vein, dasatinib 40 mg/kg daily oral) of the same molecule?
Its value is “superior inhibitory effect compared to the positive control (paclitaxel)”.

What about the remaining activity at 10 µM (c-Src(1-530)) of the same molecule?
Its remaining activity at 10 µM is 0%.

And the remaining activity at 10 µM (B-Raf)?
The remaining activity at 10 µM was 7%.

What about the remaining activity at 10 µM (EphA2) of the same molecule?
The remaining activity at 10 µM was -3%.

And the remaining activity at 10 µM (MEK1(h))?
Its remaining activity at 10 µM is 34%.
